Results on 14 molecules are retold here after PubChem BioAssay (NCI).

Test systems include SF-268 CNS; COLO 205 colon; HL-60(TB) leukemia; HCT-15 colon; OVCAR-5 ovarian; NCI-H23 lung; HCC-2998 colon; DU-145 prostate; HOP-92 NSCLC; MDA-MB-231 breast.
Assay in all cases: NCI-60 cell line screen, 48 h

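Results reflect a 48-hour exposure of cells in 96-well plates to compound at five concentrations. GI50 = concentration required for 50% inhibition of growth. At the TGI there is no net growth.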

With `Cc1ccccc1NC(=O)CC(=O)NNCC(=O)Nc1nnc(-c2ccccc2)s1`, the TGI in the test with SF-268 CNS is > 100 µM; in the test on COLO 205 colon it was > 100 µM; with HL-60(TB) leukemia, 85.3 µM; with HCT-15 colon, > 100 µM; with OVCAR-5 ovarian, > 100 µM; in the test on NCI-H23 lung, > 100 µM. For the same molecule, the TGI in the test on HCC-2998 colon was > 100 µM.

As for `O=C1Nc2ccc(Cl)cc2/C1=N/c1nc(-c2ccc(Cl)cc2)cs1`, the GI50 is 1.29 µM with SF-268 CNS, 1.69 µM in the test with COLO 205 colon, 1.91 µM in the test with OVCAR-5 ovarian and 1.42 µM in the test on DU-145 prostate. Further, the TGI in the test with SF-268 CNS amounted to 4.41 µM; in the test with COLO 205 colon, 4.18 µM; in the test with OVCAR-5 ovarian, 4.43 µM; in the test on DU-145 prostate, 2.79 µM.

As to `O=C(CC1(O)C(=O)Nc2c(Cl)ccc(Cl)c21)c1ccc(Cl)cc1` (stereo unspecified), the TGI in the test with SF-268 CNS was 94 µM; in the test on COLO 205 colon it was 32.8 µM; with HCT-15 colon, > 100 µM; in the test with OVCAR-5 ovarian, > 100 µM; with HOP-92 NSCLC, 93.9 µM; in the test with NCI-H23 lung, 46.5 µM. For the same molecule, in the test with HCC-2998 colon, the TGI came out at 71 µM.

As for `CN(C)CCNC(=O)c1cccc2c1nc(-c1cccnc1)c1ccccc12`, the TGI in the test on SF-268 CNS is 22.2 µM; with COLO 205 colon, 16.4 µM; with HL-60(TB) leukemia, 28.8 µM; with HCT-15 colon, 20.1 µM; in the test on OVCAR-5 ovarian, 34 µM; with HOP-92 NSCLC, 19.1 µM. In addition, the TGI in the test with NCI-H23 lung turned out to be 15.9 µM; in the test with HCC-2998 colon, 20.2 µM.

For the molecule `O/N=C1/C(=C/c2ccc(OCc3ccccc3)cc2)CCCC1C(NO)c1ccc(OCc2ccccc2)cc1` (stereo unspecified), the TGI with COLO 205 colon is > 100 µM; in the test with HL-60(TB) leukemia it was > 100 µM; in the test with HCT-15 colon, > 100 µM; in the test with OVCAR-5 ovarian, > 100 µM; in the test on HOP-92 NSCLC, 63.5 µM; in the test with NCI-H23 lung, > 100 µM. In addition, the TGI in the test on HCC-2998 colon is > 100 µM.

As to `CC1(C)CC(=O)C(C(=O)Nc2cccs2)=C(O)C1`, the TGI with SF-268 CNS is > 100 µM; with COLO 205 colon, 33.7 µM; with HL-60(TB) leukemia it was 57.7 µM; with HCT-15 colon it was > 100 µM; in the test with OVCAR-5 ovarian, > 100 µM; with HOP-92 NSCLC it was 68.2 µM. For the same molecule, the figures for the TGI in the test on NCI-H23 lung and in the test with HCC-2998 colon were 95.7 µM and > 100 µM, respectively.

Turning to `CCOC(=O)C1C(NC(N)=O)N(Cc2ccccc2)C(=O)N1Cc1ccccc1` (stereo unspecified), the TGI in the test on SF-268 CNS, with COLO 205 colon, in the test with HL-60(TB) leukemia, with HCT-15 colon, in the test with OVCAR-5 ovarian and in the test with HOP-92 NSCLC was > 100 µM in each case. For the same molecule, in the test with HCC-2998 colon, the TGI was > 100 µM.

`CC(C)(C)C1CC[C@H]2c3c([nH]c4ccccc34)[C@H]3C(=O)N(c4ccc(F)cc4)C(=O)[C@H]3[C@H]2C1` (stereo partly specified): the TGI is 30.8 µM in the test on SF-268 CNS; 30.4 µM in the test with COLO 205 colon; > 100 µM with HCT-15 colon; 80 µM with OVCAR-5 ovarian; 48.1 µM in the test on HOP-92 NSCLC; 33.4 µM with NCI-H23 lung. Moreover, the TGI with HCC-2998 colon amounted to 28.4 µM.

For `CC(=O)NC(CCCNC(=O)OCc1ccccc1)C(=O)NCc1ccccc1` (stereo unspecified), the TGI in the test on SF-268 CNS, in the test on COLO 205 colon, in the test with HCT-15 colon, with OVCAR-5 ovarian, in the test with HOP-92 NSCLC and in the test with NCI-H23 lung was > 100 µM in each case. Besides, the TGI in the test on HCC-2998 colon is > 100 µM.

As for `CN1S(=O)(=O)N(C)P12(N=P(CP(=NP13(N(C)S(=O)(=O)N1C)N(C)S(=O)(=O)N3C)(c1ccccc1)c1ccccc1)(c1ccccc1)c1ccccc1)N(C)S(=O)(=O)N2C`, the TGI in the test with SF-268 CNS, in the test with COLO 205 colon, with HL-60(TB) leukemia, in the test with HCT-15 colon, with OVCAR-5 ovarian and in the test with HOP-92 NSCLC was > 100 µM each time. Besides, the TGI in the test on NCI-H23 lung and in the test on HCC-2998 colon was > 100 µM throughout.

Regarding `COc1ccc(C(C)Nc2cc(OC)c(OC)c(OC)c2)cc1` (stereo unspecified), the TGI in the test on SF-268 CNS is 9.59 µM; in the test on COLO 205 colon, 7.78 µM; in the test on HL-60(TB) leukemia, 5.81 µM; in the test on HCT-15 colon, > 100 µM; with OVCAR-5 ovarian, > 100 µM; in the test on HOP-92 NSCLC, > 100 µM. Also, the TGI in the test with NCI-H23 lung was > 39.6 µM; with HCC-2998 colon it was > 72.2 µM.

`C=CCN(CC=C)Cc1c[nH]c2ccccc12`: the GI50 is 11.5 µM in the test with SF-268 CNS; 18.4 µM with COLO 205 colon; 84.2 µM with HL-60(TB) leukemia; 32.8 µM with HCT-15 colon; 17 µM in the test on OVCAR-5 ovarian; > 100 µM in the test on HOP-92 NSCLC. The GI50 is 14 µM in the test on NCI-H23 lung, 23.4 µM with MDA-MB-231 breast and 27.8 µM with HCC-2998 colon. The TGI was 32.5 µM with SF-268 CNS; > 100 µM in the test with COLO 205 colon; > 100 µM in the test with HL-60(TB) leukemia; > 100 µM in the test with HCT-15 colon; 34.6 µM with OVCAR-5 ovarian; > 100 µM with HOP-92 NSCLC. Further, the TGI in the test on NCI-H23 lung was 52.8 µM; in the test on MDA-MB-231 breast, 54.8 µM; with HCC-2998 colon it was 72.7 µM.

`COC1=CC(=O)C(O)=C(CC2(C)C(C)CCC3(C)C2CCCC3(C)C)C1=O` (stereo unspecified): the TGI in the test with SF-268 CNS is 25.4 µM; in the test with COLO 205 colon it was 19.2 µM; with HL-60(TB) leukemia, 8.53 µM; with HCT-15 colon, 14.8 µM; in the test with OVCAR-5 ovarian, 21.9 µM; in the test with HOP-92 NSCLC it was 7.63 µM. Besides, the figures for the TGI with NCI-H23 lung and in the test on HCC-2998 colon were 8.05 µM and 17.8 µM, respectively.

Consider `O=C(CCN1CCOCC1)Nc1ccc(Cn2nnc3c2C(=O)c2nnn(Cc4ccc(NC(=O)CCN5CCOCC5)cc4)c2C3=O)cc1`, for which the GI50 in the test on SF-268 CNS was 1.28 µM; in the test with COLO 205 colon, 0.645 µM; with HL-60(TB) leukemia it was 1.14 µM; in the test on HCT-15 colon, > 100 µM; with OVCAR-5 ovarian, > 100 µM; with HOP-92 NSCLC it was 2.36 µM. In addition, the GI50 was 18.6 µM with DU-145 prostate, 1.43 µM with NCI-H23 lung and 2.62 µM with HCC-2998 colon. Moreover, the TGI was > 100 µM with SF-268 CNS; 2.13 µM in the test on COLO 205 colon; 4.63 µM with HL-60(TB) leukemia; > 100 µM with HCT-15 colon; > 100 µM with OVCAR-5 ovarian; 4.64 µM in the test with HOP-92 NSCLC. Also, the values for the TGI in the test with DU-145 prostate, with NCI-H23 lung and in the test on HCC-2998 colon were > 52.4 µM, 5.52 µM and 6.68 µM, respectively.
